# According to PubChem BioAssay (NCI):
#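 Grown in 96-well plates, cells were treated for 48 hours with each compound at five concentrations. Insufficient inhibition: endpoint recorded as highest concentration tested. At the GI50, growth is halved. TGI marks complete inhibition of growth.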
# Experiments:
# Experiment in all cases: inhibition of tumour cell growth, NCI panel, 48 h
# IGROV1 ovarian = tested on: IGROV1 ovarian
# SF-268 CNS = tested on: SF-268 CNS
# SK-MEL-2 melanoma = tested on: SK-MEL-2 melanoma
# OVCAR-5 ovarian = tested on: OVCAR-5 ovarian
# NCI-H226 lung = tested on: NCI-H226 lung
# MOLT-4 leukemia = tested on: MOLT-4 leukemia
# RXF 393 renal = tested on: RXF 393 renal
# COLO 205 colon = tested on: COLO 205 colon
# TK-10 renal = tested on: TK-10 renal
# T-47D breast = tested on: T-47D breast
# SNB-75 CNS = tested on: SNB-75 CNS
# SR leukemia = tested on: SR leukemia
# SW-620 colon = tested on: SW-620 colon
# OVCAR-8 ovarian = tested on: OVCAR-8 ovarian
# MCF7 breast = tested on: MCF7 breast
# U251 CNS = tested on: U251 CNS
# SN12C renal = tested on: SN12C renal
# NCI/ADR-RES ovarian = tested on: NCI/ADR-RES ovarian
# SK-MEL-5 melanoma = tested on: SK-MEL-5 melanoma
# UACC-62 melanoma = tested on: UACC-62 melanoma
# MDA-MB-231 breast = tested on: MDA-MB-231 breast
# HCT-15 colon = tested on: HCT-15 colon
# CAKI-1 renal = tested on: CAKI-1 renal
# HCC-2998 colon = tested on: HCC-2998 colon
# SNB-19 CNS = tested on: SNB-19 CNS
# UO-31 renal = tested on: UO-31 renal
# HL-60(TB) leukemia = tested on: HL-60(TB) leukemia
# M14 melanoma = tested on: M14 melanoma
# LOX IMVI melanoma = tested on: LOX IMVI melanoma
# 786-0 renal = tested on: 786-0 renal
# NCI-H460 lung = tested on: NCI-H460 lung
# A549 NSCLC = tested on: A549 NSCLC
# SK-MEL-28 melanoma = tested on: SK-MEL-28 melanoma
# PC-3 prostate = tested on: PC-3 prostate
# KM12 colon = tested on: KM12 colon
# K-562 leukemia = tested on: K-562 leukemia
# UACC-257 melanoma = tested on: UACC-257 melanoma
# HCT-116 colon = tested on: HCT-116 colon
# SK-OV-3 ovarian = tested on: SK-OV-3 ovarian
# BT-549 breast = tested on: BT-549 breast
# NCI-H23 lung = tested on: NCI-H23 lung
# SF-295 CNS = tested on: SF-295 CNS
# HOP-92 NSCLC = tested on: HOP-92 NSCLC
# DU-145 prostate = tested on: DU-145 prostate
# HT29 colon = tested on: HT29 colon
# ACHN renal = tested on: ACHN renal
# A498 renal = tested on: A498 renal
# OVCAR-4 ovarian = tested on: OVCAR-4 ovarian
# HOP-62 NSCLC = tested on: HOP-62 NSCLC
# RPMI-8226 leukemia = tested on: RPMI-8226 leukemia
# CCRF-CEM leukemia = tested on: CCRF-CEM leukemia
# MDA-MB-435 = tested on: MDA-MB-435
# MALME-3M melanoma = tested on: MALME-3M melanoma
# NCI-H522 lung = tested on: NCI-H522 lung
# SF-539 CNS = tested on: SF-539 CNS
# OVCAR-3 ovarian = tested on: OVCAR-3 ovarian
# HS 578T breast = tested on: HS 578T breast
# EKVX NSCLC = tested on: EKVX NSCLC
smiles,measurement,setting,value
O=C(Nc1cccc(-c2cccc(F)c2)c1)C1CCN(Cc2cccc3cccnc23)CC1,GI50,IGROV1 ovarian,2.1 µM
same,TGI,IGROV1 ovarian,4.74 µM
same,GI50,SF-268 CNS,4.05 µM
same,TGI,SF-268 CNS,16.1 µM
same,GI50,SK-MEL-2 melanoma,2.03 µM
same,TGI,SK-MEL-2 melanoma,4.29 µM
same,GI50,OVCAR-5 ovarian,2.93 µM
same,TGI,OVCAR-5 ovarian,11.8 µM
same,GI50,NCI-H226 lung,3.15 µM
same,TGI,NCI-H226 lung,17.2 µM
same,GI50,MOLT-4 leukemia,1.66 µM
same,TGI,MOLT-4 leukemia,4.77 µM
same,GI50,RXF 393 renal,1.57 µM
same,TGI,RXF 393 renal,3.47 µM
same,GI50,COLO 205 colon,1.62 µM
same,TGI,COLO 205 colon,3.29 µM
same,GI50,TK-10 renal,4.3 µM
same,TGI,TK-10 renal,16.7 µM
same,GI50,T-47D breast,2 µM
same,TGI,T-47D breast,5.83 µM
same,GI50,SNB-75 CNS,2.4 µM
same,TGI,SNB-75 CNS,11.7 µM
same,GI50,SR leukemia,1.66 µM
same,TGI,SR leukemia,4.46 µM
same,GI50,SW-620 colon,1.71 µM
same,TGI,SW-620 colon,3.57 µM
same,GI50,OVCAR-8 ovarian,3.53 µM
same,TGI,OVCAR-8 ovarian,13.8 µM
same,GI50,MCF7 breast,1.8 µM
same,TGI,MCF7 breast,4.16 µM
same,GI50,U251 CNS,1.85 µM
same,TGI,U251 CNS,3.73 µM
same,GI50,SN12C renal,1.97 µM
same,TGI,SN12C renal,4.83 µM
same,GI50,NCI/ADR-RES ovarian,2.76 µM
same,TGI,NCI/ADR-RES ovarian,10.2 µM
same,GI50,SK-MEL-5 melanoma,1.64 µM
same,TGI,SK-MEL-5 melanoma,3.06 µM
same,GI50,UACC-62 melanoma,1.73 µM
same,TGI,UACC-62 melanoma,3.28 µM
same,GI50,MDA-MB-231 breast,1.9 µM
same,TGI,MDA-MB-231 breast,3.99 µM
same,GI50,HCT-15 colon,1.79 µM
same,TGI,HCT-15 colon,5.16 µM
same,GI50,CAKI-1 renal,1.96 µM
same,TGI,CAKI-1 renal,4.07 µM
same,GI50,HCC-2998 colon,1.77 µM
same,TGI,HCC-2998 colon,3.29 µM
same,GI50,SNB-19 CNS,2 µM
same,TGI,SNB-19 CNS,4.83 µM
same,GI50,UO-31 renal,1.73 µM
same,TGI,UO-31 renal,4.11 µM
same,GI50,HL-60(TB) leukemia,1.94 µM
same,TGI,HL-60(TB) leukemia,4.2 µM
same,GI50,M14 melanoma,1.75 µM
same,TGI,M14 melanoma,3.3 µM
same,GI50,LOX IMVI melanoma,1.59 µM
same,TGI,LOX IMVI melanoma,3.12 µM
same,GI50,786-0 renal,1.58 µM
same,TGI,786-0 renal,3.02 µM
same,GI50,NCI-H460 lung,1.92 µM
same,TGI,NCI-H460 lung,3.77 µM
same,GI50,A549 NSCLC,3.47 µM
same,TGI,A549 NSCLC,13 µM
same,GI50,SK-MEL-28 melanoma,1.82 µM
same,TGI,SK-MEL-28 melanoma,3.57 µM
same,GI50,PC-3 prostate,2.21 µM
same,TGI,PC-3 prostate,7.09 µM
same,GI50,KM12 colon,3.16 µM
same,TGI,KM12 colon,10.3 µM
same,GI50,K-562 leukemia,1.52 µM
same,TGI,K-562 leukemia,3.87 µM
same,GI50,UACC-257 melanoma,1.83 µM
same,TGI,UACC-257 melanoma,3.75 µM
same,GI50,HCT-116 colon,1.71 µM
same,TGI,HCT-116 colon,3.08 µM
same,GI50,SK-OV-3 ovarian,4.67 µM
same,TGI,SK-OV-3 ovarian,16.9 µM
same,GI50,BT-549 breast,1.79 µM
same,TGI,BT-549 breast,3.3 µM
same,GI50,NCI-H23 lung,3.16 µM
same,TGI,NCI-H23 lung,13 µM
same,GI50,SF-295 CNS,1.8 µM
same,TGI,SF-295 CNS,3.6 µM
same,GI50,HOP-92 NSCLC,2.03 µM
same,TGI,HOP-92 NSCLC,7.22 µM
same,GI50,DU-145 prostate,4.36 µM
same,TGI,DU-145 prostate,15.6 µM
same,GI50,HT29 colon,1.51 µM
same,TGI,HT29 colon,3.17 µM
same,GI50,ACHN renal,2.28 µM
same,TGI,ACHN renal,5.67 µM
same,GI50,A498 renal,2.06 µM
same,TGI,A498 renal,7.09 µM
same,GI50,OVCAR-4 ovarian,3.57 µM
same,TGI,OVCAR-4 ovarian,14.1 µM
same,GI50,HOP-62 NSCLC,3.78 µM
same,TGI,HOP-62 NSCLC,15.7 µM
same,GI50,RPMI-8226 leukemia,1.95 µM
same,TGI,RPMI-8226 leukemia,4.49 µM
same,GI50,CCRF-CEM leukemia,2.67 µM
same,TGI,CCRF-CEM leukemia,11.2 µM
same,GI50,MDA-MB-435,1.69 µM
same,TGI,MDA-MB-435,3.19 µM
same,GI50,MALME-3M melanoma,1.65 µM
same,TGI,MALME-3M melanoma,3.28 µM
same,GI50,NCI-H522 lung,2.16 µM
same,TGI,NCI-H522 lung,5.1 µM
same,GI50,SF-539 CNS,1.8 µM
same,TGI,SF-539 CNS,3.56 µM
same,GI50,OVCAR-3 ovarian,3.51 µM
same,TGI,OVCAR-3 ovarian,13.2 µM
same,GI50,HS 578T breast,1.91 µM
same,TGI,HS 578T breast,4.55 µM
C[N+](C)=C/C=C(\Cl)c1ccc2ccccc2c1,TGI,IGROV1 ovarian,34.9 µM
same,TGI,SF-268 CNS,67 µM
same,TGI,SK-MEL-2 melanoma,59.9 µM
same,TGI,OVCAR-5 ovarian,39.8 µM
same,TGI,NCI-H226 lung,41.4 µM
same,TGI,MOLT-4 leukemia,3.67 µM
same,TGI,RXF 393 renal,47.9 µM
same,TGI,COLO 205 colon,41.4 µM
same,TGI,EKVX NSCLC,60.1 µM
same,TGI,TK-10 renal,33.4 µM
same,TGI,T-47D breast,48.3 µM
same,TGI,SNB-75 CNS,> 58.2 µM
same,TGI,SR leukemia,4.26 µM
same,TGI,SW-620 colon,29.2 µM
same,TGI,OVCAR-8 ovarian,31.6 µM
same,TGI,MCF7 breast,> 73.4 µM
same,TGI,U251 CNS,27.8 µM
same,TGI,SN12C renal,50 µM
same,TGI,NCI/ADR-RES ovarian,17.3 µM
same,TGI,SK-MEL-5 melanoma,36.5 µM
same,TGI,UACC-62 melanoma,29.9 µM
same,TGI,MDA-MB-231 breast,28.8 µM
same,TGI,HCT-15 colon,11.2 µM
same,TGI,CAKI-1 renal,25 µM
same,TGI,HCC-2998 colon,20.7 µM
same,TGI,SNB-19 CNS,38.5 µM
same,TGI,UO-31 renal,32.6 µM
same,TGI,HL-60(TB) leukemia,38.5 µM
same,TGI,M14 melanoma,23.2 µM
same,TGI,LOX IMVI melanoma,12.8 µM
same,TGI,786-0 renal,28.9 µM
same,TGI,NCI-H460 lung,57.6 µM
same,TGI,A549 NSCLC,> 100 µM
same,TGI,SK-MEL-28 melanoma,11.1 µM
same,TGI,PC-3 prostate,43.5 µM
same,TGI,KM12 colon,32.3 µM
same,TGI,K-562 leukemia,> 33.2 µM
same,TGI,UACC-257 melanoma,36.8 µM
same,TGI,HCT-116 colon,9.79 µM
same,TGI,SK-OV-3 ovarian,38.2 µM
same,TGI,BT-549 breast,38.6 µM
same,TGI,NCI-H23 lung,17.1 µM
same,TGI,SF-295 CNS,33.8 µM
same,TGI,HOP-92 NSCLC,53.3 µM
same,TGI,DU-145 prostate,28.8 µM
same,TGI,HT29 colon,28.4 µM
same,TGI,ACHN renal,28.5 µM
same,TGI,A498 renal,> 100 µM
same,TGI,OVCAR-4 ovarian,11.6 µM
same,TGI,HOP-62 NSCLC,35 µM
same,TGI,RPMI-8226 leukemia,14.6 µM
same,TGI,MDA-MB-435,36 µM
same,TGI,MALME-3M melanoma,27.8 µM
same,TGI,NCI-H522 lung,67.8 µM
same,TGI,SF-539 CNS,58.7 µM
same,TGI,OVCAR-3 ovarian,13.4 µM
same,TGI,HS 578T breast,> 100 µM
